Where two headings read alike, the source gives them in different places.
Assays:
[1] = tested on: HLA-A*24:02-restricted CD8+ T cells; type: cell-based, human; conditions: for Freq of responder (%): of 17 vaccinated HLA-A*24:02+ individuals (Fig. 4b); for Resp: number of responders (individuals with epitope-specific CD8+ T cells): of 17 vaccinated HLA-A*24:02+ individuals, 1 μM peptide
[2] = molecular target: HLA-A*24:02 (Homo sapiens, UniProt P04439, D101N/D140Y/D185E/E176V/E190D/F33S/G103R/G107R/I119L/I121M/I306V/K335N/L105A/L180Q/L300P/N151K/N90K/Q86E/Q94H/R106L/R138H/R89G/T104I/T345S/V100E/W191G/Y123F); experiment: HLA stabilization assay using RMA-S-A2402 cells; type: binding; conditions: for MFI, HLA-A2402 (APC), representative staining: RMA-S-A2402 cells
[3] = convalescent donor C2, 45.290 weeks since PCR-confirmed diagnosis, peptide-pulsed C1R-A2402
[4] = convalescent donor C3, 2.430 weeks since PCR-confirmed diagnosis, peptide-pulsed C1R-A2402
[5] = convalescent donor C4, 35.000 weeks since PCR-confirmed diagnosis, peptide-pulsed C1R-A2402
[6] = convalescent donor C5, 41.430 weeks since PCR-confirmed diagnosis, peptide-pulsed C1R-A2402
[7] = convalescent donor C6, 20.000 weeks since PCR-confirmed diagnosis, peptide-pulsed C1R-A2402
[8] = convalescent donor C7, 21.710 weeks since PCR-confirmed diagnosis, peptide-pulsed C1R-A2402
[9] = convalescent donor C8, 47.860 weeks since PCR-confirmed diagnosis, peptide-pulsed C1R-A2402
[10] = convalescent donor C9, 21.860 weeks since PCR-confirmed diagnosis, peptide-pulsed C1R-A2402
[11] = convalescent donor C10, 24.570 weeks since PCR-confirmed diagnosis, peptide-pulsed C1R-A2402
[12] = convalescent donor C11, 24.290 weeks since PCR-confirmed diagnosis, peptide-pulsed C1R-A2402
[13] = vaccinated donor V1, 19.000 weeks since 2nd dose, C1R-A2402 pre-pulsed with 1 μM peptide
[14] = vaccinated donor V2, 9.570 weeks since 2nd dose, C1R-A2402 pre-pulsed with 1 μM peptide
[15] = vaccinated donor V4, 10.430 weeks since 2nd dose, C1R-A2402 pre-pulsed with 1 μM peptide
[16] = vaccinated donor V5, 10.570 weeks since 2nd dose, C1R-A2402 pre-pulsed with 1 μM peptide
[17] = vaccinated donor V6, 9.570 weeks since 2nd dose, C1R-A2402 pre-pulsed with 1 μM peptide
[18] = vaccinated donor V7, 10.140 weeks since 2nd dose, C1R-A2402 pre-pulsed with 1 μM peptide
[19] = vaccinated donor V8, 9.860 weeks since 2nd dose, C1R-A2402 pre-pulsed with 1 μM peptide
[20] = vaccinated donor V9, 20.570 weeks since 2nd dose, C1R-A2402 pre-pulsed with 1 μM peptide
[21] = vaccinated donor V10, 2.000 weeks since 2nd dose, C1R-A2402 pre-pulsed with 1 μM peptide
[22] = vaccinated donor V11, 1.430 weeks since 2nd dose, C1R-A2402 pre-pulsed with 1 μM peptide
[23] = vaccinated donor V12, 1.000 weeks since 2nd dose, C1R-A2402 pre-pulsed with 1 μM peptide
[24] = vaccinated donor V13, 9.000 weeks since 2nd dose, C1R-A2402 pre-pulsed with 1 μM peptide
[25] = vaccinated donor V14, 2.000 weeks since 2nd dose, C1R-A2402 pre-pulsed with 1 μM peptide
[26] = vaccinated donor V15, 6.860 weeks since 2nd dose, C1R-A2402 pre-pulsed with 1 μM peptide
[27] = vaccinated donor V16, 8.860 weeks since 2nd dose, C1R-A2402 pre-pulsed with 1 μM peptide
[28] = vaccinated donor V17, 4.140 weeks since 2nd dose, C1R-A2402 pre-pulsed with 1 μM peptide
[29] = Suppl. Fig. 3b (for Fig. 4a, 4b), peptide(-) 14.8, 26 °C (Maximum) 32.7
[30] = vaccinated donor V3, 8.860 weeks since 2nd dose, C1R-A2402 pre-pulsed with 1 μM peptide

| Sequence | IFNg-producing cells among CD8 T cells (%) [1, 3] [%] | IFNg-producing cells among CD8 T cells (%) [1, 4] [%] | IFNg-producing cells among CD8 T cells (%) [1, 5] [%] | IFNg-producing cells among CD8 T cells (%) [1, 6] [%] | IFNg-producing cells among CD8 T cells (%) [1, 7] [%] | IFNg-producing cells among CD8 T cells (%) [1, 8] [%] | IFNg-producing cells among CD8 T cells (%) [1, 9] [%] | IFNg-producing cells among CD8 T cells (%) [1, 10] [%] | IFNg-producing cells among CD8 T cells (%) [1, 11] [%] | IFNg-producing cells among CD8 T cells (%) [1, 12] [%] | IFNg-producing cells among CD8 T cells (%) [1, 13] [%] | IFNg-producing cells among CD8 T cells (%) [1, 14] [%] | IFNg-producing cells among CD8 T cells (%) [1, 15] [%] | IFNg-producing cells among CD8 T cells (%) [1, 16] [%] | IFNg-producing cells among CD8 T cells (%) [1, 17] [%] | IFNg-producing cells among CD8 T cells (%) [1, 18] [%] | IFNg-producing cells among CD8 T cells (%) [1, 19] [%] | IFNg-producing cells among CD8 T cells (%) [1, 20] [%] | IFNg-producing cells among CD8 T cells (%) [1, 21] [%] | IFNg-producing cells among CD8 T cells (%) [1, 22] [%] | other results |
| --- | --- | --- | --- | --- | --- | --- | --- | --- | --- | --- | --- | --- | --- | --- | --- | --- | --- | --- | --- | --- | --- |
| RFDNPVLPF [S-RF9] | 0.770 | 0.050 | 1.110 | 0.000 | 0.000 | 0.000 | 0.000 | 0.000 | 0.000 | 0.000 | 0 | 0.296 | 0.333 | 0.15 | 0 | 0 | 0 | 0.769 | 0 | 0 | IFNg-producing cells among CD8 T cells (%) [1, 23]: 0.495%; IFNg-producing cells among CD8 T cells (%) [1, 24]: 0.076%; IFNg-producing cells among CD8 T cells (%) [1, 25]: 0.633%; IFNg-producing cells among CD8 T cells (%) [1, 26]: 0%; IFNg-producing cells among CD8 T cells (%) [1, 27]: 0.051%; IFNg-producing cells among CD8 T cells (%) [1, 28]: 0%; MFI, HLA-A2402 (APC), representative staining [2, 29]: 10.5; binding to HLA-A*24:02 (in words) ([2]; […], 16 peptides tested at 100 μM): did not bind |
| RVYSTGSNVF [S-RF10] | 1.394 | 0.025 | 0.000 | 0.000 | 0.000 | 0.000 | 0.600 | 0.000 | 0.420 | 0.000 | 0 | 0 | 0.522 | 1.045 | 0 | 0 | 0.127 | 0 | 0.033 | 0.679 | Freq of responder (%) [1]: 5.9%; Resp: number of responders (individuals with epitope-specific CD8+ T cells) [1]: one; IFNg-producing cells among CD8 T cells (%) [1, 30]: 0.19%; IFNg-producing cells among CD8 T cells (%) [1, 23]: 0.143%; IFNg-producing cells among CD8 T cells (%) [1, 24]: 0.275%; IFNg-producing cells among CD8 T cells (%) [1, 25]: 0.249%; IFNg-producing cells among CD8 T cells (%) [1, 26]: 0.267%; IFNg-producing cells among CD8 T cells (%) [1, 27]: 0.199%; IFNg-producing cells among CD8 T cells (%) [1, 28]: 0%; MFI, HLA-A2402 (APC), representative staining [2, 29]: 48.0 |
| VFKNIDGYF [S-VF9] | 0.300 | 0.050 | 1.030 | 0.000 | 0.310 | 0.000 | 0.370 | 0.490 | 0.000 | 0.000 | 0 | 0 | 0.114 | 0.154 | 0 | 0.163 | 0 | 0 | 0 | 0 | IFNg-producing cells among CD8 T cells (%) [1, 30]: 0%; IFNg-producing cells among CD8 T cells (%) [1, 23]: 0.427%; IFNg-producing cells among CD8 T cells (%) [1, 24]: 0%; IFNg-producing cells among CD8 T cells (%) [1, 25]: 0.009%; IFNg-producing cells among CD8 T cells (%) [1, 26]: 0%; IFNg-producing cells among CD8 T cells (%) [1, 27]: 0.255%; IFNg-producing cells among CD8 T cells (%) [1, 28]: 0.147%; MFI, HLA-A2402 (APC), representative staining [2, 29]: 38.0 |
| VFVSNGTHWF [S-VFF10] | 0.490 | 0.090 | 0.710 | 0.000 | 0.560 | 0.000 | 0.420 | 0.110 | 0.000 | 0.000 | 0 | 0 | 0.485 | 0.489 | 0 | 0 | 0 | 3.184 | 0 | 0 | Freq of responder (%) [1]: 5.9%; Resp: number of responders (individuals with epitope-specific CD8+ T cells) [1]: one; IFNg-producing cells among CD8 T cells (%) [1, 30]: 0%; IFNg-producing cells among CD8 T cells (%) [1, 23]: 0.283%; IFNg-producing cells among CD8 T cells (%) [1, 24]: 0.024%; IFNg-producing cells among CD8 T cells (%) [1, 25]: 0%; IFNg-producing cells among CD8 T cells (%) [1, 26]: 0.253%; IFNg-producing cells among CD8 T cells (%) [1, 27]: 0%; IFNg-producing cells among CD8 T cells (%) [1, 28]: 0%; MFI, HLA-A2402 (APC), representative staining [2, 29]: 22.3; MFI, HLA-A2402 (APC), representative staining ([2]; Suppl. Fig. 3c (for Fig. 4c), peptide(-) 11.7, 26 °C (Maximum) 28.9): 37.9 |

From article PMC9447987, “Long-term memory CD8^+ T cells specific for SARS-CoV-2 in individuals who received the BNT162b2 mRNA vaccine” (Nature Communications, 2022)
